Results as given in US9708639B2, “Method for quantifying amino acids with pyrophosphate” (TOYAMA PREFECTURE, priority 2012, dated 2017).

How the values were obtained:
Thermotoga-derived LysRS = target: T1, Thermotoga-derived LysRS (Thermotoga maritima, UniProt Q9X231); experiment: Calibration curve for amino acid by coupled PPDK and LDH; format: biochemical, Thermotoga maritima MSB8 strain; settings: Lys 0 to 200 μM; hydroxylamine 1000 mM; LysRS 0.1 mg/ml (10 mU/ml); 30° C.
T1 construct: His tag (C); made in house; host or cells: Escherichia coli BL21 (DE3)
T1 sequence (Q9X231 1-502): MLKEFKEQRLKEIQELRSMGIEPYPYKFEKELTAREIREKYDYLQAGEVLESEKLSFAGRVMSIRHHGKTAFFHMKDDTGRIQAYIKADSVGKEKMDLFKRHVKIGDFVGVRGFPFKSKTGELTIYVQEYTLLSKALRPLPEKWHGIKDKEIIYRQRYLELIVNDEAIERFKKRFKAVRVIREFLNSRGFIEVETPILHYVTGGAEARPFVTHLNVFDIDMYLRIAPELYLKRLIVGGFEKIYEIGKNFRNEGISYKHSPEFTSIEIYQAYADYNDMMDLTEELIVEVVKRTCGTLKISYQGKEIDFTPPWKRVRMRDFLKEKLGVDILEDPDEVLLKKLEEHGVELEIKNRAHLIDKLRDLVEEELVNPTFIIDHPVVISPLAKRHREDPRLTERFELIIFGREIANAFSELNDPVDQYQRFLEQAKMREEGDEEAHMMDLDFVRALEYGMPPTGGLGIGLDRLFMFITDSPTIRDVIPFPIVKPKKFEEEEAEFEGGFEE
Method: (§1) A test sample containing an amino acid as the measurement subject and a reaction mixture for quantifying amino acid having the following composition were mixed. The mixture was left standing at 30° C. to allow the AARS, PPDK, and LDH reactions to advance, and decrease of the absorbance at 340 nm was measured. The volume of the mixture was 200 μl, and after the reaction mixture was put into the wells of a 96-well microplate, the absorbance was measured with a microplate reader.
(§2) Reaction mixture for quantifying amino acid: 20 mM Tris-HCl (pH 7.0), 10 mM MgCl2, 10 mM NH4Cl, 0.3 mM PEP, 0.3 mM NADH, 0.2 mM ATP, 0.2 mM AMP, 70 mU/ml PPDK, 50 U/ml LDH, and AARS (concentrations are final concentrations obtained after mixing with test sample)
(§3) Calibration curves were prepared by using the AARS activity measurement method described in 8. and standard Cys, Lys, Ser, and Tyr solutions as test samples. The concentrations of the aforementioned amino acids were set so that the final concentrations thereof are in the range of 0 to 200 μM. The hydroxylamine concentration was 200 mM for the samples used for the Tyr calibration curve, or 1000 mM for the samples used for the Cys, Lys, and Ser calibration curves. The Thermotoga-derived CysRS, LysRS, SerRS, TyrRS, and the Thermus-derived TyrRS were added to the reaction mixture at final concentrations of 0.2 (7 mU/ml), 0.1 (10 mU/ml), 0.2 (8 mU/ml), 0.4 (40 mU/ml), and 0.1 mg/ml, respectively.
(§4) Calibration curves could be similarly prepared when adding pyrophosphate instead of the aforementioned amino acids, but the inclinations of the Lys, Ser, and Tyr calibration curves (absorbance change per mM of substrate) were 80% or more of the inclination of the pyrophosphate calibration curve. […] The inclination of the Cys calibration curve was slightly smaller than those of the other calibration curves, and it is considered that this is because a part of cysteine in the test sample was converted into cystine by air oxidation, and the real concentration of cysteine was reduced.

Thermotoga-derived SerRS = target: T2, Thermotoga-derived SerRS (Thermotoga maritima, UniProt Q9X199); experiment: as above; format: biochemical, Thermotoga maritima MSB8 strain; settings: Ser 0 to 200 μM; hydroxylamine 1000 mM; SerRS 0.2 mg/ml (8 mU/ml); 30° C.
T2 construct: His tag (C); made in house; host or cells: Escherichia coli BL21 (DE3)
T2 sequence (Q9X199 whole entry): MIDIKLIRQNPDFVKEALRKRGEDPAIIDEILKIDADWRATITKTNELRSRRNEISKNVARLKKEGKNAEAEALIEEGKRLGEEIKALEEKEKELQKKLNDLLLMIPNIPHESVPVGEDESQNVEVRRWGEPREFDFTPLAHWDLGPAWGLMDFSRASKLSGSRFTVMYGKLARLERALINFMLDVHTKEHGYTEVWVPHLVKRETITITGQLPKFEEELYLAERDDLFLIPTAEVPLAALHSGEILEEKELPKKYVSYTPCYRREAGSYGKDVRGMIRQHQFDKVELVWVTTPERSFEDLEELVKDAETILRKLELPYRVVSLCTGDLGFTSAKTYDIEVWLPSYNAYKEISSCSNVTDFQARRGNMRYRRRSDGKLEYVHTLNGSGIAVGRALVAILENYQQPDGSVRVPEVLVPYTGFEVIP
Method: as §1, §2, §3, §4

NCCCC[C@H](N)C(=O)O [Lys, L-lysine]
inclination of calibration curve relative to inclination of the pyrophosphate calibration curve (Thermotoga-derived LysRS): ≥ 80%

N[C@@H](CO)C(=O)O [Ser, L-serine]
inclination of calibration curve relative to inclination of the pyrophosphate calibration curve (Thermotoga-derived SerRS): ≥ 80%
